From the supplement of paper PMC8988213
Counter-ions that a name gives are not always drawn.

Assays:
[1] = tested on: ID211 patient-derived PDAC 2D line (post-FOLFIRINOX); test: normalised area under dose-response curve (viability relative to DMSO, 7 doses up to 10 µM) (fraction (AUC)); higher = less sensitive (more viability retained); details: 72 h; top dose: 10 µM
Procedure: (§1)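 Patient-derived 2D PDAC cells (ID188 pre-FOLFIRINOX, passage 5+27; ID211 post-FOLFIRINOX, passage 9+11), 1,500-3,000 cells/well in 96-well plates, were treated with a 415-compound Selleck library in seven concentrations (3-fold dilution series, top 10 µM) for 72 h. Viability was read by CellTiter-Glo ATP luminescence, normalised to the DMSO control, and the area under the dose-response curve was computed with the GRmetrics R package; a lower AUC means higher sensitivity.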

[2] = tested on: ID188 patient-derived PDAC 2D line (pre-FOLFIRINOX); test: as above; details: 72 h; top dose: 10 µM
Procedure: as §1

C=CC(=O)N1CCC(Oc2cc3c(Nc4ccc(Cl)c(Cl)c4F)ncnc3cc2OC)CC1 [Poziotinib (HM781-36B)]
normalised area under dose-response curve [1]: 0.54
normalised area under dose-response curve [2]: 0.908

C[C@@H](N)[C@H]1CC[C@H](C(=O)Nc2ccncc2)CC1
normalised area under dose-response curve [1]: 0.922
normalised area under dose-response curve [2]: 0.941

CC(C)c1cc(-c2n[nH]c(=O)n2-c2ccc3c(ccn3C)c2)c(O)cc1O [Ganetespib (STA-9090)]
normalised area under dose-response curve [1]: 0.266
normalised area under dose-response curve [2]: 0.483

COc1cc2nccc(Oc3ccc(NC(=O)C4(C(=O)Nc5ccc(F)cc5)CC4)cc3)c2cc1OC [Cabozantinib malate (XL184)]
normalised area under dose-response curve [1]: 0.78
normalised area under dose-response curve [2]: 0.585

Cc1sc2c(c1C)C(c1ccc(Cl)cc1)=N[C@@H](CC(N)=O)c1nnc(C)n1-2 [CPI-203]
normalised area under dose-response curve [1]: 0.597
normalised area under dose-response curve [2]: 0.877

CN(C(=O)CNC(=O)/C=C/c1cccc(Cl)c1)C1CCS(=O)(=O)CC1 [ML264]
normalised area under dose-response curve [1]: 0.894
normalised area under dose-response curve [2]: 0.796

CNCc1ccc(-c2cc(-c3nc(-c4ccc(S(=O)(=O)C(C)C)cc4)cnc3N)on2)cc1 [VE-822]
normalised area under dose-response curve [1]: 0.888
normalised area under dose-response curve [2]: 0.693

Cc1ccc(S(=O)(=O)/C=C/C#N)cc1 [BAY 11-7082]
normalised area under dose-response curve [1]: 0.839
normalised area under dose-response curve [2]: 0.957

CC(C)c1ccc2c(c1)c(SC(C)(C)C)c(CC(C)(C)C(=O)O)n2Cc1ccc(Cl)cc1 [MK-886 (L-663,536)]
normalised area under dose-response curve [1]: 0.843
normalised area under dose-response curve [2]: 0.989

Cn1cc(-c2ccc3nnc(Sc4ccc5ncccc5c4)n3n2)cn1 [SGX-523]
normalised area under dose-response curve [1]: 0.941
normalised area under dose-response curve [2]: 0.983

Nc1ccccc1NC(=O)c1ccc(CNC(=O)OCc2cccnc2)cc1 [Entinostat (MS-275)]
normalised area under dose-response curve [1]: 0.73
normalised area under dose-response curve [2]: 0.835

COC(=O)c1ccc([C@H]2c3[nH]c4ccccc4c3C[C@H](C(=O)OC)N2C(=O)CCl)cc1 [RSL3]
normalised area under dose-response curve [1]: 0.175
normalised area under dose-response curve [2]: 0.465

N#CSc1cc(SC#N)c(N)nc1N [PR-619]
normalised area under dose-response curve [1]: 0.875
normalised area under dose-response curve [2]: 0.921

O=C1Nc2ccccc2/C1=C1/Nc2ccccc2C1=O [Indirubin]
normalised area under dose-response curve [1]: 0.801
normalised area under dose-response curve [2]: 0.791

COC[C@H](NC(=O)c1cnc(C)s1)C(=O)N[C@@H](COC)C(=O)N[C@@H](Cc1ccccc1)C(=O)[C@@]1(C)CO1 [Oprozomib (ONX 0912)]
normalised area under dose-response curve [1]: 0.333
normalised area under dose-response curve [2]: 0.427

Cc1ccc(C(=O)Nc2cccc(C(F)(F)F)c2)cc1Nc1nc(-c2cccnc2)nc2c1cnn2C [NVP-BHG712]
normalised area under dose-response curve [1]: 0.831
normalised area under dose-response curve [2]: 0.869

C/C(=N\NC(=O)c1cccc(S(=O)(=O)N2CCOCC2)c1)c1cc(Cl)ccc1O [SP2509]
normalised area under dose-response curve [1]: 0.824
normalised area under dose-response curve [2]: 0.86

NC(=O)c1ncn([C@@H]2O[C@H](CO)[C@@H](O)[C@H]2O)c1N [AICAR (Acadesine)]
normalised area under dose-response curve [1]: 0.887
normalised area under dose-response curve [2]: 0.934

CC(C)Nc1cc(-c2c[nH]c(C(=O)N[C@H](CO)c3cccc(Cl)c3)c2)c(Cl)cn1
normalised area under dose-response curve [1]: 0.687
normalised area under dose-response curve [2]: 0.881

Cc1cc(Nc2ncc(Cl)c(Nc3ccccc3S(=O)(=O)C(C)C)n2)c(OC(C)C)cc1C1CCNCC1 [Ceritinib (LDK378)]
normalised area under dose-response curve [1]: 0.685
normalised area under dose-response curve [2]: 0.823

COc1cc(Nc2ncc3c(n2)-c2ccc(Cl)cc2C(c2c(F)cccc2OC)=NC3)ccc1C(=O)O [Alisertib (MLN8237)]
normalised area under dose-response curve [1]: 0.88
normalised area under dose-response curve [2]: 0.799

Cc1ccc2nc(CN(CCN(Cc3nc4ccc(C)cc4[nH]3)Cc3nc4ccc(C)cc4[nH]3)Cc3nc4ccc(C)cc4[nH]3)[nH]c2c1
normalised area under dose-response curve [1]: 0.676
normalised area under dose-response curve [2]: 1.03

CC1(C)CCC(CN2CCN(c3ccc(C(=O)NS(=O)(=O)c4ccc(NCC5CCOCC5)c([N+](=O)[O-])c4)c(Oc4cnc5[nH]ccc5c4)c3)CC2)=C(c2ccc(Cl)cc2)C1 [Venetoclax (ABT-199, GDC-0199)]
normalised area under dose-response curve [1]: 0.887
normalised area under dose-response curve [2]: 0.928

O=C(O)c1cc(I)ccc1NC(=O)[C@H](Cc1ccccc1)NCc1ccccc1 [CW069]
normalised area under dose-response curve [1]: 0.842
normalised area under dose-response curve [2]: 0.937

COc1ccc(N(C(=O)Oc2c(C)cccc2C)c2ccnc(Nc3ccc(N4CCN(C)CC4)cc3)n2)c(OC)c1 [WH-4-023]
normalised area under dose-response curve [1]: 0.935
normalised area under dose-response curve [2]: 0.929

CO[C@@H](C(=O)N1Cc2[nH]nc(NC(=O)c3ccc(N4CCN(C)CC4)cc3)c2C1)c1ccccc1
normalised area under dose-response curve [1]: 0.611
normalised area under dose-response curve [2]: 0.766

O=P1(N(CCCl)CCCl)NCCCO1 (configuration not stated) [Cyclophosphamide Monohydrate]
normalised area under dose-response curve [1]: 0.899
normalised area under dose-response curve [2]: 0.927

CN1CCN(c2ccc(C(=O)Nc3n[nH]c4ccc(Cc5cc(F)cc(F)c5)cc34)c(NC3CCOCC3)c2)CC1 [Entrectinib (RXDX-101)]
normalised area under dose-response curve [1]: 0.706
normalised area under dose-response curve [2]: 0.813

O=c1cc(N2CCOCC2)oc2c(-c3ccc4c(c3)OCCO4)csc12 [SF2523]
normalised area under dose-response curve [1]: 0.768
normalised area under dose-response curve [2]: 0.968

Cc1c(CN2CCC(Nc3ncnc4sc(CC(F)(F)F)cc34)CC2)ccc2c1cc(C#N)n2Cc1cn[nH]c1 [MI-503]
normalised area under dose-response curve [1]: 0.805
normalised area under dose-response curve [2]: 0.871

NC(=O)c1ccc(I)c([N+](=O)[O-])c1 [Iniparib (BSI-201)]
normalised area under dose-response curve [1]: 0.952
normalised area under dose-response curve [2]: 0.939

CCOc1cc2ncc(C#N)c(Nc3ccc(F)c(Cl)c3)c2cc1NC(=O)/C=C/CN(C)C [Pelitinib (EKB-569)]
normalised area under dose-response curve [1]: 0.631
normalised area under dose-response curve [2]: 0.846

Cc1c(CN2CCC(Nc3ncnc4sc(CC(F)(F)F)cc34)CC2)ccc2[nH]c(C#N)cc12 [MI-463]
normalised area under dose-response curve [1]: 0.825
normalised area under dose-response curve [2]: 0.713

COc1ccc(S(=O)(=O)Nc2cccnc2Nc2ccc(O)cc2)cc1 [ABT-751 (E7010)]
normalised area under dose-response curve [1]: 0.644
normalised area under dose-response curve [2]: 0.794

O=C(O)CCCCC(CCSCc1ccccc1)SCc1ccccc1 (configuration not stated) [CPI-613]
normalised area under dose-response curve [1]: 0.902
normalised area under dose-response curve [2]: 0.897

O=c1cc(N2CCOCC2)oc2c(-c3cccc4c3sc3ccccc34)cccc12
normalised area under dose-response curve [1]: 0.878
normalised area under dose-response curve [2]: 0.991

CC(C)(C)c1ccc(S(=O)(=O)NCc2ccc(C(=O)Nc3cccnc3)cc2)cc1 [STF-31]
normalised area under dose-response curve [1]: 0.865
normalised area under dose-response curve [2]: 0.864

CC(C)c1c(-c2ccccc2)nc2c(C#N)c[nH]n2c1=O [CPI-455 HCl]
normalised area under dose-response curve [1]: 0.898
normalised area under dose-response curve [2]: 0.972

Cc1ccc(C(=O)N(CCCN)[C@@H](c2oc3cc(Cl)ccc3c(=O)c2Cc2ccccc2)C(C)C)cc1
normalised area under dose-response curve [1]: 0.708
normalised area under dose-response curve [2]: 0.51

CCc1cnn2c(NCc3ccc[n+]([O-])c3)cc(N3CCCC[C@H]3CCO)nc12
normalised area under dose-response curve [1]: 0.161
normalised area under dose-response curve [2]: 0.426

C[C@@H](Oc1cc(-c2cnn(C3CCNCC3)c2)cnc1N)c1c(Cl)ccc(F)c1Cl
normalised area under dose-response curve [1]: 0.799
normalised area under dose-response curve [2]: 0.772

C#Cc1cccc(Nc2ncnc3cc(OCCOC)c(OCCOC)cc23)c1 [Erlotinib]
normalised area under dose-response curve [1]: 0.7
normalised area under dose-response curve [2]: 0.902

CCC1=C[C@@H]2CN(C1)Cc1c([nH]c3ccccc13)[C@@](C(=O)OC)(c1cc3c(cc1OC)N(C)[C@H]1[C@@](O)(C(=O)OC)[C@H](OC(C)=O)[C@]4(CC)C=CCN5CC[C@]31[C@@H]54)C2 [Vinorelbine Tartrate]
normalised area under dose-response curve [1]: 0.338
normalised area under dose-response curve [2]: 0.546

Cc1cc2c(C(=O)NC[C@H](C)c3ccccc3)c(O)c(O)cc2c(O)c1-c1c(C)cc2c(C(=O)NC[C@H](C)c3ccccc3)c(O)c(O)cc2c1O [Sabutoclax]
normalised area under dose-response curve [1]: 0.909
normalised area under dose-response curve [2]: 0.822

COc1cc(Br)c(Nc2nc(-c3c(C)nc4ncccn34)cs2)c(Br)c1 [PTC-209 HBr]
normalised area under dose-response curve [1]: 0.819
normalised area under dose-response curve [2]: 0.836

CCCCCCCCCCCCc1ccc(S(=O)(=O)Nc2nncs2)cc1 [PHT-427]
normalised area under dose-response curve [1]: 0.931
normalised area under dose-response curve [2]: 0.871

Cc1cc2c(C(N)=O)cccc2n1-c1nc2c(c(NCc3ccccc3)n1)COCC2 [CB-5083]
normalised area under dose-response curve [1]: 0.643
normalised area under dose-response curve [2]: 1.01

COc1ccc(-n2c(SCCCN3C(=O)c4cccc5cccc(c45)C3=O)nnc2-c2ccncc2)cc1 [WIKI4]
normalised area under dose-response curve [1]: 0.85
normalised area under dose-response curve [2]: 0.837

COc1cc(C(C)=O)ccc1O [Apocynin]
normalised area under dose-response curve [1]: 0.816
normalised area under dose-response curve [2]: 0.915

COc1cc2c(cc1OC)[C@@H]1C(=O)c3ccc4c(c3O[C@@H]1CO2)C=CC(C)(C)O4 [Deguelin]
normalised area under dose-response curve [1]: 0.75
normalised area under dose-response curve [2]: 0.886

O=C(O)CCNc1cc(N2CCc3ccccc3CC2)nc(-c2ccccn2)n1 [GSK J1]
normalised area under dose-response curve [1]: 0.832
normalised area under dose-response curve [2]: 1
